In patent US20200383905A1 (priority 2015, published 2020):
Structures can show the parent of a compound that is named as a salt. Where two headings read alike, the source gives them in different places.

Tests used:
[1] = Example 5: multiple-dose 3-way crossover PK study of two IV regimens vs 100 mg oral Q6h; conditions: for AUCtau 1: first dosing interval; for Cmax: human, plasma, iv, 50 mg, 50 mg IV regimen
Description: The term “STD” as used herein means standard deviation. […] The term “Css” means steady-state concentration. The term “Cmax” means maximum concentration. The term “AUC” means area under the curve. […] The term “PIT” means peak to trough.

[2] = Observed steady-state PK of oral tramadol Q6h (threshold PK parameters); conditions: for AUC / Cmax: human, plasma, po
animal model = conditions: cited from earlier work
μ opioid = conditions: animal model; cited from earlier work
[3] = tested on: experienced opioid abusers; conditions: tramadol 100 and 200 mg IV, cited from earlier work; for Ratings of feel drug effect compared to placebo / Ratings of liking: morphine 10 and 20 mg IV over 5 minutes; for Ratings of feel drug effect compared to placebo: 10 experienced opioid abusers
postoperative pain = conditions: IV or IM intermittent injection, dose titrated to pain response; cited from earlier work
[4] = cited from earlier work
[5] = oral administration; cited from earlier work
rats and dogs = conditions: repeat-dose; cited from earlier work
[6] = in vivo; cited from earlier work
[7] = mean cumulative doses 449 to 868.3 mg over 24, 36 and 48 h; cited from earlier work
[8] = plasma 0-desmethyltramadol, tramadol 50 mg IV at h 0, 2, 4 then q4h, mean
[9] = plasma 0-desmethyltramadol, tramadol 75 mg IV at h 0, 3, 6 then q6h, mean
[10] = plasma 0-desmethyltramadol, tramadol 100 mg oral q6h, mean
[11] = 60 mg oral tramadol dose, by extrapolation
[12] = 100 mg oral tramadol Q6h, steady-state, geometric mean, observed
[13] = 120 mg oral tramadol dose, by extrapolation
[14] = plasma tramadol, 50 mg IV at h 0, 2, 4 then q4h, mean
[15] = plasma tramadol, 75 mg IV at h 0, 3, 6 then q6h, mean
[16] = plasma tramadol, 100 mg oral q6h, mean

What does the source list for CN(C)C[C@H]1CCCC[C@]1(O)c1cccc(O)c1 [M1, 0-desmethyltramadol]?
AUCtau 1 [1, 8]: 39.93 ng·h/mL; AUCtau n ([1]; plasma 0-desmethyltramadol, tramadol 50 mg IV at h 0, 2, 4 then q4h, last dosing interval, mean): 355.6 ng·h/mL; C48 [1, 8]: 81.7 ng/mL; AUCtau 1 [1, 9]: 108.3 ng·h/mL; C48 [1, 9]: 75.9 ng/mL; AUCtau 1 [1, 10]: 272.1 ng·h/mL; C48 [1, 10]: 111 ng/mL; Cmax(42-48) ([1]; plasma 0-desmethyltramadol, tramadol 100 mg oral q6h, steady-state, mean): about 146 ng/mL; M1 AUC6 ([2]; 50 mg oral tramadol dose): 491 ng·h/mL; M1 Cmax ([2]; 50 mg oral tramadol dose): 96 ng/mL; M1 AUC6 [2, 11]: 589 ng·h/mL; M1 Cmax [2, 11]: 115 ng/mL; M1 AUC6 [2, 12]: 668 ng·h/mL; M1 Cmax [2, 12]: 125 ng/mL; M1 AUC6 [2, 13]: 802 ng·h/mL; M1 Cmax [2, 13]: 150 ng/mL; Potency in producing analgesia, times more potent than the parent compound (animal model): 6 times; Potency in μ opioid binding, times more potent than the parent compound (μ opioid): 200 times

Which results are given for CN1CC[C@]23c4c5ccc(O)c4O[C@H]2[C@@H](O)C=C[C@H]3[C@H]1C5 [morphine]?
Ratings on the ARCI-MBG scale ([3]; morphine 20 mg IV over 5 minutes): increased ratings on the ARCI-MBG scale; Ratings of feel drug effect compared to placebo [3]: significantly increased ratings; Ratings of liking [3]: significantly increased ratings; Reduction of pain intensity after 4 to 6 hours (postoperative pain): 69.8%

Which AUC0-24h ([4]; 100 mg i.v.) does the source give for COc1cccc([C@]2(O)CCCC[C@H]2CN(C)C)c1 (racemic) [Tramadol, (±)cis-2-[(dimethylamino)methyl]-1-(3-methoxyphenyl) cyclohexanol hydrochloride] here?
Its AUC0-24h is 3709 ± 977 ng·h/mL.

What about the Vd ([4]; 100 mg i.v.) of the same molecule?
Its Vd is 203 L.

And the t1/2 ([4]; 100 mg i.v.)?
The t1/2 was 5.2 h.

What about the AUC0-24h ([4]; 100 mg p.o.) of the same molecule?
The AUC0-24h was 2488 ± 774 ng·h/mL.

And the Cmax ([4]; 100 mg p.o.)?
Its Cmax is 280 ± 49 ng/mL.

And the Vd ([4]; 100 mg p.o.)?
Its Vd is 306 L.

What about the “Distribution half-life, initial phase” value ([4]; IV administration) of the same molecule?
Its value is 0.31 ± 0.17 h.

And the “Half-life of slower distribution phase” value ([4]; IV administration)?
The value was 1.7 ± 0.4 h.

And the “Absolute bioavailability with continuous dosing” value ([4]; oral, continuous dosing (Liao 1992))?
The value was 90-100%.

What about the Cmax ([1]; Mean Cmax after the first dose, plasma tramadol) of the same molecule?
The Cmax was roughly 273 ng/mL.

And the Cmax ([1]; Mean Cmax after the second dose, plasma tramadol)?
The Cmax was roughly 451 ng/mL.

What about the Cmax ([1]; Mean Cmax concentration after the third administered dose, plasma tramadol) of the same molecule?
The Cmax was roughly 666 ng/mL.

What about the C48 [1, 14] of the same molecule?
The C48 was 448 ng/mL.

What about the “Cmax(2-4)” value [1, 14] of the same molecule?
The value was 479 ng/mL.

What about the “P/T Ratio First” value [1, 14] of the same molecule?
The value was 1.4566.

And the “P/T Ratio Last” value [1, 14]?
The value was 1.6370.

What about the C48 [1, 15] of the same molecule?
The C48 was 354 ng/mL.

And the “P/T Ratio First” value [1, 15]?
Its value is 2.0658.

What about the “P/T Ratio Last” value [1, 15] of the same molecule?
The value was 2.3692.

And the C48 [1, 16]?
The C48 was 497 ng/mL.

And the “P/T Ratio First” value [1, 16]?
The value was 1.9824.

What about the “P/T Ratio Last” value [1, 16] of the same molecule?
Its value is 1.4400.

And the “Ratings of feel drug effect compared to placebo” value [3]?
Its value is “significantly increased ratings”.

What about the Ratings of liking [3] of the same molecule?
Its Ratings of liking is “neither dose of tramadol increased ratings”.

And the “Fertility or teratogenic effects” value [5]?
The value was “no safety concerns with respect to fertility or teratogenic effects”.

And the AUC ([2]; 50 mg)?
The AUC was 1640 ng·h/mL.

And the Cmax ([2]; 50 mg)?
The Cmax was 340 ng/mL.

And the Cmax ([2]; 60 mg)?
The Cmax was 408 ng/mL.

And the AUC ([2]; 100 mg)?
Its AUC is 3230 ng·h/mL.

And the Cmax ([2]; 100 mg)?
Its Cmax is 676 ng/mL.

What about the AUC ([2]; 120 mg) of the same molecule?
The AUC was 3880 ng·h/mL.

And the Cmax ([2]; 120 mg)?
Its Cmax is 811 ng/mL.

And the “Dose with behavioral/clinical signs and convulsions” value (rats and dogs)?
The value was greater than 25 mg/kg/day.

What about the “Time to reach steady-state” value [6] of the same molecule?
Its value is 42 to 48 h.

And the Serious adverse effects [7]?
The Serious adverse effects was “no serious adverse effects were observed”.
